Legend:
Type in all cases: cell-based, human
[1] = tested on: ACACA mRNA; assay: qRT-PCR of ACACA mRNA in BT474 cells; settings: shRNA or 20 μM GW9662 for 48 h
Protocol: (§1) FIG. 4 NR1D1 and PBP coordinate fatty acid metabolism in breast cancer cells. (a) BT474, MDA-MB-361, MCF-7 and HMEC cells were stained with Oil-Red O lipid and hematoxylin nuclear stains. (b) Fat stores were quantified by BODIPY 493/503 lipid probe staining (Error bars are s.d from 3 individual experiments). (c) FASN, ACLY, ACACA and FADS2 mRNA levels of BT474 cells treated with luciferase (control), PBP or NR1D1 shRNAs, or with vehicle and 20 μM of GW9662 for 48 h, analyzed by qRT-PCRs. (Error bars are s.d from 3 experiments; ***P<0.001, **P=0.005) (d) BT474 cells were transfected with FASN, ACLY and ACACA shRNAs and co-transfected with GFP. Transfected cells were counted at 24 h and 72 h and the 72h-to-24 h ratio for each shRNA was calculated and expressed as % of the control shRNA (luciferase). (Error bars are s.d from 3 individual experiments; **P<0.01, ***P<0.002). (e) BODIPY images and (f) quantification of BT474 cells transfected with luciferase (control), PBP or NR1D1 shRNAs and co-transfected with DsRed (Error bars are s.d from 3 individual experiments; ***P<0.03). Arrows indicate transfected cells.
(§2) Cell viability—apoptosis assays. […] At least 30 fields were imaged per single experiment. […] Immunoblotting. […] PCR reaction was run using standard conditions.

[2] = tested on: NR1D1 mRNA; assay: qRT-PCR of NR1D1 mRNA in BT474 cells; settings: shRNA 48 h, qRT-PCR
Protocol: FIG. 2 NR1D1 and PBP are necessary for survival of ERBB2-positive cells. (a) PBP and NR1D1 mRNA levels of BT474 cells transfected with luciferase (control), PBP or NR1D1 shRNAs for 48 h, analyzed by qRT-PCRs. (Error bars are s.d from 3 experiments; ***P<0.003, **P=0.01, *P=0.02). (b) BMAL1 luciferase reporter activity of BT474 cells transfected with either empty vector (control), or NR1D1 shRNA for 48 h.
FIG. 3 PPAR. inhibition impacts NR1D1 expression and ERBB2-positive cells viability. (a) Cell counts of BT474, MDA-MB-361, MCF-7 and HMEC cells treated with vehicle, 10 and 20 μM of the PPAR. antagonist GW9662 for 72 hrs. Results represented as % of control (vehicle). (Error bars are s.d from 3 individual experiments; *P>0.2, **P<0.05, ***P<0.002). (b) BT474 cells treated with vehicle or 20 μM of GW9662 for 48 h were immuno-stained for cleaved Caspase-3. (c) Quantification of Caspase-3 signal. (Error bars are s.d from 3 individual experiments; ***P=0.002). (d) aP2 and NR1D1 mRNA levels of BT474 cells treated with vehicle (control) and 20 μM of GW9662 for 48 h, analyzed by qRT-PCRs. […]

[3] = tested on: ERBB2 mRNA; assay: qRT-PCR of ERBB2 mRNA in BT474 cells; settings: shRNA 48 h
Protocol: Results are shown as percentage of control. (**P=0.03). (c) BT474 cells were transfected with luciferase (control), PBP and NR1D1 shRNAs and co-transfected with GFP. Green cells were counted at intervals and expressed as percentage of control. (Error bars are s.d from 3 individual experiments; *P<0.08, **P<0.03, ***P<0.005). (d) BT474 cells were transfected with luciferase (control), PBP or NR shRNAs for 48 h. Immunofluorescence was performed for cleaved Caspase-3 signal; cell nuclei were stained with Hoechst 33243. (e) Cells from […] were counted for cleaved Caspase-3 signal. (Error bars are s.d from 3 individual experiments; ***P<0.0003). (f) BT474 cells were transfected with luciferase (control) PBP, NR1D1 or PBP and NR1D1 shRNAs together and co-transfected with GFP. Transfected cells were counted at 24 h and 72 h and the 72 h-to-24 h ratio for each shRNA was calculated and expressed as % of the control shRNA (luciferase). (Error bars are s.d from 3 individual experiments; **P=0.01, ***P<0.002). (g) Cells from (f) were counted for cleaved Caspase-3 signal. (Error bars are s.d from 3 individual experiments; ***P<0.0001). (h) ERBB2 mRNA levels of BT474 cells transfected with luciferase (control), PBP or NR1D1 shRNAs for 48 h, analyzed by qRT-PCRs. (Error bars are s.d from 3 individual experiments; ***P=0.0001).
Cell viability—apoptosis assays. […]

[4] = tested on: ACLY mRNA; assay: qRT-PCR of ACLY mRNA in BT474 cells; settings: shRNA or 20 μM GW9662 for 48 h
Protocol: as §1, §2

[5] = tested on: BT474 cells; assay: Neutral fat stores by BODIPY 493/503 staining; settings: first 48 h after transfection
Protocol: as §1
Metabolic assays. […] Transfected cells were monitored by co-transfecting with the pDsRed-Monomer-N1 vector (Clontech). Cells were imaged and analyzed using the In Cell Analyzer 1000—In Cell Investigator 3.4 system (GE Biosciences), as described above. […]

| Substance | ACACA transcript level [1] | decrease in mRNA levels of target (NR1D1) [2] [%] | mRNA levels of ERBB2 [3] | ACLY transcript level [4] | decrease in fat stores [5] [%] |
| --- | --- | --- | --- | --- | --- |
| NR1D1 shRNA: shRNA, mature sequence GGCATGGTGTTACTGTGTA (shRNA) | reduced | > 60 | no effect | reduced | 47 |
| PBP shRNA: shRNA, mature sequence CCGAGTTCCTCTTATCCTA (shRNA) | reduced |  | significantly decreased | reduced | 30 |

From patent publication US20100267803A1, “Regulators Of Fat Metabolism As Anti-Cancer Targets” (The Research Foundation of State University Of New York, priority 2008, published 2010)
